EP4122499A1, “FIBROBLAST ACTIVATION PROTEIN INHIBITORS AND USE THEREOF” (3B Pharmaceuticals GmbH, priority 2021, dated 2023)

What was measured:
Recombinant mouse FAP = target: T1, Recombinant mouse FAP (Mus musculus, UniProt P97321); assay: FRET-based FAP protease activity assay (mouse); type: biochemical; settings: FRET-peptide substrate, 37°C; for IC50: read-out: pIC50 (mouseFAP) (converted)
T1 construct: purchased R&D systems 8647-SE
T1 sequence (P97321 1-761): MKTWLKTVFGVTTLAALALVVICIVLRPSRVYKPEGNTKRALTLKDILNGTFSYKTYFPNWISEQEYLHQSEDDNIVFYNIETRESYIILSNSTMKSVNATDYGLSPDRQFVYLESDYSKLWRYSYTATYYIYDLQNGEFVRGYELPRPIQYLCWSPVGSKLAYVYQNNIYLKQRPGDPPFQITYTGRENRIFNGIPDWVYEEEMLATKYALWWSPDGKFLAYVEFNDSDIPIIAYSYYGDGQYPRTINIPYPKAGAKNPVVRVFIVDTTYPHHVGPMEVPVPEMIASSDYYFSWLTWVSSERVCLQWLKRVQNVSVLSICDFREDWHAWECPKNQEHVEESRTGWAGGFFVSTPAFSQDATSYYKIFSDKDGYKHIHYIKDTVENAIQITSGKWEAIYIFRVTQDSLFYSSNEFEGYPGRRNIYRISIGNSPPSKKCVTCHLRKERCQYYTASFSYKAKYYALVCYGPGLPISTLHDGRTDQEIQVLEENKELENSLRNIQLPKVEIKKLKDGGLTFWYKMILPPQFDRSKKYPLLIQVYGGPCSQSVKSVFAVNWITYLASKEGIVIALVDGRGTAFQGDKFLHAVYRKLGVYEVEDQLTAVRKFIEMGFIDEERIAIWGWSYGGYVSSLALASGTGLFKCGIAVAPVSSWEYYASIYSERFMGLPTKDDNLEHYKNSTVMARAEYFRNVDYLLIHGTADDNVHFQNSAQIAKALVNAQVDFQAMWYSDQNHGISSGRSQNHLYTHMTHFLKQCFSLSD
Experimental: (§1) In order to determine the inhibitory activity a FRET-based FAP protease activity assay was established.
25 µL of a 30 µM substrate solution, diluted in assay buffer, was added. […] Four parameter logistic (4PL) curve fitting and pIC50 calculations were performed using ActivityBase software.

Recombinant human DPP4 = target: T2, Recombinant human DPP4 (Homo sapiens, UniProt P27487); assay: DPP4 protease activity assay; type: biochemical; settings: 20 µM GP-AMC substrate; for IC50: read-out: pIC50 (DPP4) (converted)
T2 construct: purchased R&D systems 9168-SE
T2 sequence (P27487 whole entry): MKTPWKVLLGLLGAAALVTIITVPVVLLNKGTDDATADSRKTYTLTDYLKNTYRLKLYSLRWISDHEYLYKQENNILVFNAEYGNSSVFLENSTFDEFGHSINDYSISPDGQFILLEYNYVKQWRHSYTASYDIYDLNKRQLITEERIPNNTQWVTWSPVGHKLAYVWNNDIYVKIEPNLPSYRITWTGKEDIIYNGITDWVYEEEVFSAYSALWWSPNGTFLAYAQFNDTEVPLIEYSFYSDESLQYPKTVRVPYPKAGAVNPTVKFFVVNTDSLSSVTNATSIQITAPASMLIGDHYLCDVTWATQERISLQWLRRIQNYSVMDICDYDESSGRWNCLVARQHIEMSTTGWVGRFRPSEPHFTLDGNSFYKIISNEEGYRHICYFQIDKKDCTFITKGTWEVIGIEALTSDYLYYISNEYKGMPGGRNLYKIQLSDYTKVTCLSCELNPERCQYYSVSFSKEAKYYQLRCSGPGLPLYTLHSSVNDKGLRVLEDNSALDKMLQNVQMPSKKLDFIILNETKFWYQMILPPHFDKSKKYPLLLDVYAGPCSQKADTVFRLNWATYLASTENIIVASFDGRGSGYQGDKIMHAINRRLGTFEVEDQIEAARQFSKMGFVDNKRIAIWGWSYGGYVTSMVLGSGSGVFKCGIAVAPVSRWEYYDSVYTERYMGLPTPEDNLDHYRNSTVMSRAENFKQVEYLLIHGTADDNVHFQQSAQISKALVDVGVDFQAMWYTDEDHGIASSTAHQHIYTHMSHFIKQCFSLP
Experimental: The PREP activity assay was performed using the FACS buffer (PBS including 1% FBS, Sigma-Aldrich, Cat# D8537). […] The DPP4 activity assay was performed in DPP assay buffer (25 mM Tris, pH 8.0).
Four parameter logistic (4PL) curve fitting and pIC50 calculations were performed using ActivityBase software.

Human recombinant FAP [1] = target: T3, Human recombinant FAP (Homo sapiens, UniProt Q12884); assay: Surface plasmon resonance assay (Biacore T200, single cycle kinetics); type: binding; settings: SPR, 25°C; for pKD (Biacore): 1:1 Langmuir binding model; for HL [min] (Biacore): half-life
T3 sequence (Q12884 1-760): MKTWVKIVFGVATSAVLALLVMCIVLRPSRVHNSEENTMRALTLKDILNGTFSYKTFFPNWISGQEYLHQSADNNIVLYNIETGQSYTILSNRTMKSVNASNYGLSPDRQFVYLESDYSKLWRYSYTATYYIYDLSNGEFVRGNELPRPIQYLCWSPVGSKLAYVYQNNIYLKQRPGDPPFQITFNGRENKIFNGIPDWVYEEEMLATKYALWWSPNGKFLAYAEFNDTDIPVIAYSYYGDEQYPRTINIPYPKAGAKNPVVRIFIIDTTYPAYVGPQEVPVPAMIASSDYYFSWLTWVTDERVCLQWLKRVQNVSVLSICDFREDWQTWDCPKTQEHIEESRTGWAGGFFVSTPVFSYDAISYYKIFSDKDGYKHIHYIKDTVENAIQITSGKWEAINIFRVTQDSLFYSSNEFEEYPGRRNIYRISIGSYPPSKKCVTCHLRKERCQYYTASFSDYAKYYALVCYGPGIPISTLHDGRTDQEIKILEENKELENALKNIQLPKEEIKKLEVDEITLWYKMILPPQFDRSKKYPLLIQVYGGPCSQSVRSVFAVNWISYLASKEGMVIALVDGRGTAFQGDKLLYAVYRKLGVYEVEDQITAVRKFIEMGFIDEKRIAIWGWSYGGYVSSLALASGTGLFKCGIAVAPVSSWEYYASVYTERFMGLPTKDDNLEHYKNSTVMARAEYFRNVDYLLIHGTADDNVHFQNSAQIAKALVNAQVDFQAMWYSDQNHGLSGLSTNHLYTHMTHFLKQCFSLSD
Experimental: Surface plasmon resonance studies were performed using a Biacore™ T200 SPR system (Cytiva, formerly GE Healthcare). Briefly, polarized light is directed towards a gold-labeled sensor surface, and minimum intensity reflected light is detected. The angle of reflected light changes as molecules bind and dissociate. […] Test compounds are contacted with the loaded surface, and a real-time interaction profile with the FAP ligand is recorded in a sensorgram. In real-time, the association and dissociation of a binding interaction is measured, enabling calculation of association and dissociation rate constants and the corresponding affinity constants. Importantly, a background response is generated due to the difference in the refractive indices of the running and sample buffers, as well as unspecific binding of the test compounds to the flow cell surface. This background is measured and subtracted by running the sample on a control flow cell coated with the same density of capture antibody in the absence of immobilized FAP. Furthermore, baseline drift correction of the binding data is performed, which is caused by slow dissociation of the captured FAP from the immobilized antibody. This drift is measured by injecting running buffer through a flow cell with the antibody and FAP immobilized to the sensor surface.
Biacore™ CM5 sensor chips were used. […] A 150 µL aliquot was transferred into plastic vials and placed into the sample rack of the Biacore™ T200 instrument. Amine Coupling Kit Reagent solutions were transferred into plastic vials and placed into the sample rack: 90 µL of 0.4 M 1-ethyl-3-(3-dimethylaminopropyl)carbodiimide (EDC), and 90 µL of 0.1 M N-hydroxysuccinimide (NHS). A 130 µL aliquot of 1 M ethanolamine-HCl, pH 8.5, was transferred into plastic vials and placed into the sample rack. The Biacore™ liquid system was set-up as follows: Separate bottles containing distilled water (1 L), Running Buffer (500 mL), as well as an empty bottle for waste were placed onto the buffer tray. A preinstalled program for immobilization was used, with an immobilization level of 7000 RU. Immobilization was performed at 25°C. The immobilization procedure of anti-FAP antibodies was performed, as described in the Table 5. Table 5: Immobilization protocol for anti-FAP antibodies used on the CM5 sensor chip.
Human recombinant FAP was diluted in Running Buffer to a final concentration of 20 µg/mL. A 100 µL aliquot of human FAP-Working-Solution was transferred into plastic vials and placed into a sample rack. A 0.5 mM Compound-Stock-Solution was prepared by dissolving each compound in DMSO. For each test compound, Compound-Stock-Solutions were diluted in Running Buffer (HBST) at 500 nM and further diluted with HBST-DMSO Buffer (0.1% DMSO). SPR binding analyses for binary complexes were performed in SCK mode at 25°C. Following three SCK measurements, a baseline drift was assessed by injecting running buffer through a flow cell, with the antibody and FAP immobilized to the sensor surface. Table 6: Protocol for assessing the binding kinetics.
For each test compound, SPR raw data in the form of resonance units (RU) were plotted as sensorgrams using the Biacore™ T200 control software. The signal from the blank sensorgram was subtracted from that of the test compound sensorgram (blank corrected). The blank corrected sensorgram was corrected for baseline drift by subtracting the sensorgram of a SCK run without the test compound (running buffer only). The association rate (kon), dissociation rate (koff), dissociation constant (KD), and t1/2 were calculated from Blank-normalized SPR data using the 1:1 Langmuir binding model from the Biacore™ T200 evaluation software. Raw data and fit results were imported as text files in IDBS. The pKD value (negative decadic logarithm of dissociation constant) was calculated in the IDBS excel template.

Human recombinant FAP [2] = target: T3, Human recombinant FAP; assay: FRET-based FAP protease activity assay (human); type: biochemical; parameters: purchased R&D systems 3715-SE; settings: FRET-peptide substrate, 37°C; for IC50: read-out: pIC50 (Activity) (converted)
Experimental: as §1
25 µL of a 30 µM substrate solution, diluted in assay buffer, was added. […] Four parameter logistic (4PL) curve fitting and pIC50 calculations were performed using ActivityBase software (IDBS).

[3] = target: T4, FAP-expressing human WI-38 fibroblasts (Homo sapiens, UniProt Q12884); assay: Competitive FACS binding assay (displacement of Cy5-labeled FAP inhibitor 3BP-2935); settings: 3 nM Cy5-labeled 3BP-2935, 4°C, 1 hour
T4 construct: FAP-expressing human WI-38 fibroblasts (ECACC 90020107) were cultured in EMEM; host or cells: WI-38 human fibroblasts
T4 sequence (Q12884 1-760): T3 sequence (Q12884 1-760)
Experimental: In order to determine binding of compounds according to the present invention to FAP-expressing cells, a competitive FACS binding assay was established.
Cells were diluted in FACS buffer to a final concentration of 100.000 cells per ml and 200 µl of the cell suspension are transferred to a u-shaped non-binding 96-well plate (Greiner).
Cell were washed twice with FACS buffer (see above) and resuspended in 200 µl FACS buffer. Cells were analyzed in an Attune NxT flow cytometer (Thermo Fisher Scientific). Median fluorescence intensities (Cy5 channel) was calculated by Attune NxT software and plotted against test compound concentrations. Four parameter logistic (4PL) curve fitting and pIC50 calculations were performed using ActivityBase software.

SMILES	IC50 (Human recombinant FAP [2]) [nM]	IC50 [3] [nM]	IC50 (Recombinant mouse FAP) [nM]	IC50 (Recombinant human DPP4) [nM]	pIC50 (Activity) (Human recombinant FAP [2])	pIC50 (FACS) [3]	pIC50 (mouseFAP) (Recombinant mouse FAP)	pIC50 (DPP4) (Recombinant human DPP4)	pKD (Biacore) (Human recombinant FAP [1])	HL [min] (Biacore) (Human recombinant FAP [1])
N#C[C@@H]1CC(F)(F)CN1C(=O)CNC(=O)c1cc[n+]([O-])c2ccc(-c3ccc(S(=O)(=O)CCCNC(=O)CN4CCN(CC(=O)O)CCN(CC(=O)O)CCN(CC(=O)O)CC4)cc3)cc12	–	–	–	–	–	–	9.1	7	>11	110
O=C(NCC(=O)N1CCC[C@H]1C(=O)CO)c1ccnc2ccccc12	–	–	–	–	–	–	8.2	–	–	3.1
N#C[C@@H]1CC(F)(F)CN1C(=O)CNC(=O)c1ccnc2ccc(OCCCN3CCN(C(=O)CN4CCN(CC(=O)O)CCN(CC(=O)O)CCN(CC(=O)O)CC4)CC3)cc12 [drawing 287]	–	–	–	–	–	–	8.8	<6	–	>500
CN(CCCN1CCN(C(=O)CN2CCN(CC(=O)O)CCN(CC(=O)O)CCN(CC(=O)O)CC2)CC1)c1ccc2nccc(C(=O)NCC(=O)N3CC(F)(F)C[C@H]3C#N)c2c1	–	–	–	–	8.9	9	8.6	–	>11	>500
O=C(NCC(=O)N1CCC[C@H]1C(=O)c1ncn[nH]1)c1ccnc2ccccc12	63.1	200	79.4	–	–	–	–	–	–	–
CS(=O)(=O)c1cc(F)c(-c2ccc3nccc(C(=O)NCC(=O)N4CCC[C@H]4C#N)c3c2)c(F)c1	0.501	3.16	1	> 1000	–	–	–	–	–	–
O=C(O)CN1CCN(CC(=O)O)CCN(CC(=O)NCCCS(=O)(=O)c2ccc(-c3ccc4nccc(C(=O)NCC(=O)N5CCC[C@H]5C(=O)c5nc6ccccc6o5)c4c3)cc2)CCN(CC(=O)O)CC1 [drawing 317]	–	–	–	–	–	–	8.6	–	>11	>500
N#C[C@@H]1CCCN1C(=O)CNC(=O)c1ccnc2ccc(-c3ccc(C(=O)NCCCN(CC(=O)O)C(=O)CN4CCN(CC(=O)O)CCN(CC(=O)O)CCN(CC(=O)O)CC4)cc3)cc12	–	–	–	–	–	–	8.9	<6	>11	>500

More lines, main results first:

IC50 (Human recombinant FAP [2]) [nM]	IC50 [3] [nM]	IC50 (Recombinant mouse FAP) [nM]	IC50 (Recombinant human DPP4) [nM]	pIC50 (Activity) (Human recombinant FAP [2])	pIC50 (FACS) [3]	SMILES	pIC50 (mouseFAP) (Recombinant mouse FAP)	pIC50 (DPP4) (Recombinant human DPP4)	pKD (Biacore) (Human recombinant FAP [1])	HL [min] (Biacore) (Human recombinant FAP [1])
0.501	2	1.58	794	–	–	Cc1cc(S(C)(=O)=O)ccc1-c1ccc2nccc(C(=O)NCC(=O)N3CC(F)(F)C[C@H]3C#N)c2c1	–	–	–	–
0.631	12.6	1.26	> 1000	–	–	Cc1cc(S(C)(=O)=O)ccc1-c1ccc2nccc(C(=O)NCC(=O)N3CCC[C@H]3C#N)c2c1	–	–	–	–
0.631	1.58	0.631	> 1000	–	–	CS(=O)(=O)c1ccc(-c2ccc3nccc(C(=O)NCC(=O)N4C[C@@H](F)C[C@H]4C#N)c3c2)cc1	–	–	–	–
0.501	2	2	–	–	–	Cc1c(-c2ccc(S(C)(=O)=O)cc2)ccc2nccc(C(=O)NCC(=O)N3CC(F)(F)C[C@H]3C#N)c12	–	–	–	–
3.16	50.1	10	> 1000	–	–	CS(=O)(=O)c1ccc(-c2ccc3nccc(C(=O)NCC(=O)N4C[C@H](F)C[C@H]4C#N)c3c2)cc1	–	–	–	–
0.501	1.26	1.58	–	–	–	Cc1cc2nccc(C(=O)NCC(=O)N3CC(F)(F)C[C@H]3C#N)c2cc1-c1ccc(S(C)(=O)=O)cc1	–	–	–	–
